Test results published in patent US11235976B2, “Nanocarbon-iron composite system as well as composition, preparation method and use thereof” (Chongqing Lummy Pharmaceutical Co., LTD, priority 2017, dated 2022).

Experiments:
[1] = system: SGC-7901 stomach cancer cells; assay: Cell experiment, cell survival rate; assay type: cell-based; details: iron preparation alone 13.65 μg/mL, 48 h
Protocol: (§1) Cells growing in a log phase are collected, the concentration of the cell suspension is adjusted, 100 μL of cell suspension is added to each well and the cells are plated (edge wells are filled with sterile PBS) at a density of 1×10^3-10^4 cells/well. The cells are incubated for 24 hours at 37° C. under the condition of 5% CO2, a nanocarbon-iron solution having a concentration gradient (nanocarbon content: 125, 62.5, 15.63 and 3.91 μg/mL; and ferric ion content: 13.65, 6.83, 1.71 and 0.43 μg/mL) is added, and three sub-wells are set. Then the cells are incubated for 48 hours at 37° C. under the condition of 5% CO2. 10 μL of CCK8 solution is added to each well and then the cells are continuously incubated for 2 hours. The absorbance of each well is measured at OD=450 nm with the microplate reader. In addition, a negative control group, nanocarbon control groups having the same concentration and iron preparation control groups having the same concentration are set.
as §1, with “and 1” for “100”, “of a 6-well plate” for “and the cells are plated (edge wells are filled with sterile PBS)”, “3×10^4” for “1×10^3-10^4”, “1.71,” for “1.71 and”, “The” for “10 μL of CCK8 solution is added to each well and then the”, “trypsinized and counted.” for “continuously incubated for 2 hours. The absorbance of each well is measured at OD=450 nm with the microplate reader.”

[2] = system: murine liver cancer H22 cells; assay: Cell experiment, cell survival rate; assay type: cell-based; details: 48 h
Protocol: as §1
as §1, with “and 1” for “100”, “of a 6-well plate” for “and the cells are plated (edge wells are filled with sterile PBS)”, “3×10^4” for “1×10^3-10^4”, “1.71,” for “1.71 and”, “The” for “10 μL of CCK8 solution is added to each well and then the”, “trypsinized and counted.” for “continuously incubated for 2 hours. The absorbance of each well is measured at OD=450 nm with the microplate reader.”

[3] = system: SMMC7721 liver cancer cells; assay: Cell experiment, cell survival rate; assay type: cell-based; details: SMMC-7721, 48 h
Protocol: as §1
as §1, with “and 1” for “100”, “of a 6-well plate” for “and the cells are plated (edge wells are filled with sterile PBS)”, “3×10^4” for “1×10^3-10^4”, “1.71,” for “1.71 and”, “The” for “10 μL of CCK8 solution is added to each well and then the”, “trypsinized and counted.” for “continuously incubated for 2 hours. The absorbance of each well is measured at OD=450 nm with the microplate reader.”

[4] = system: TPC-1 thyroid cancer cells; assay: Cell experiment, cell survival rate; assay type: cell-based; details: 48 h
Protocol: as §1
as §1, with “and 1” for “100”, “of a 6-well plate” for “and the cells are plated (edge wells are filled with sterile PBS)”, “3×10^4” for “1×10^3-10^4”, “1.71,” for “1.71 and”, “The” for “10 μL of CCK8 solution is added to each well and then the”, “trypsinized and counted.” for “continuously incubated for 2 hours. The absorbance of each well is measured at OD=450 nm with the microplate reader.”

[5] = system: H22 metastatic lymph nodes; assay: Lymph node metastasis inhibition experiment; assay type: in vivo, Kunming mouse; details: popliteal lymph nodes
Protocol: (§2) Milky white and thick ascites is extracted from the H22 tumor-bearing mice, the concentration is adjusted to be 3×10^7 cells/mL, 0.05 mL of cell suspension (about 1.5×10^6 cells) is inoculated subcutaneously into the left hind foot pads of each Kunming mouse, and thus a lymph node metastasis mouse model is obtained. The mice are treated when the diameter of the tumor reaches 6-8 mm and there is no ulcer and necrosis. The mice are randomly divided into four groups (10 mice per group): a negative control group (0.9% sodium chloride injection), a nanocarbon control group, an iron preparation control group and a nanocarbon-iron suspension experimental group. 10 days after inoculation, the mice are killed, and popliteal lymph nodes are collected, weighed and fixed for pathological examination.

[6] = system: lymph node metastasis of 9 types of tumor cells; assay: Lymph node metastasis inhibition experiment, summary; assay type: in vivo, mice
Protocol: as §2, with “Cells growing in a log phase are collected,” for “Milky white and thick ascites is extracted from the H22 tumor-bearing mice,”, “concentration of the cell suspension” for “concentration”, “to” for “to be”, “the” for “0.05 mL of”, “suspension” for “suspension (about 1.5×10^6 cells)”, “nude mouse at the inoculation volume of 0.05 mL (about 1.5×10^6 cells)” for “Kunming mouse,”
as §2

[7] = system: subcutaneous transplantation tumors of 9 types of cancer cells; assay: Tumor growth inhibition experiments, subcutaneous transplantation tumors; assay type: in vivo, mice; details: FIGS. 4-39
Protocol: Cells growing in a log phase are collected, the concentration of the cell suspension is adjusted to 3×10^7 cells/mL, and the cell suspension is inoculated subcutaneously into the right upper extremities of nude mice at the inoculation dosage of 0.1 mL (about 3×10^6 cells) per mouse. When the average tumor volume of the inoculated mice reaches 100 mm^3, the tumor-bearing mice are randomly divided into the following groups (8 nude mice per group): a negative control group (0.9% sodium chloride injection), a nanocarbon control group, an iron preparation control group, a nanocarbon-iron suspension experimental group, and a cis-platinum control group (intraperitoneal injection at the dosage of 5 mg/kg). The above various drugs are injected into the tumors. The tumor volume changes are recorded, and the formula for calculating the volume is Volume=(length×the square of width)/2.
Milky white and thick ascites is extracted from the H22 tumor-bearing mice, the concentration of the cell suspension is adjusted to be 3×10^7 cells/mL, 0.1 mL of cell suspension (about 3×10^6 cells) is inoculated subcutaneously into the right upper extremity of each of Kunming mice. When the average tumor volume of the inoculated mice reaches 100 mm^3, the tumor-bearing mice are randomly divided into the following groups (8 mice per group): a negative control group (0.9% sodium chloride injection), a nanocarbon control group, an iron preparation control group, a nanocarbon-iron suspension experimental group, and a cis-platinum control group (intraperitoneal injection at the dosage of 5 mg/kg). The above various drugs are injected into the tumors. The tumor volume changes are recorded, and the formula for calculating the volume is Volume=(length×the square of width)/2.

[8] = system: A549 metastatic lymph nodes; assay: Lymph node metastasis inhibition experiment; assay type: in vivo, nude mouse; details: popliteal lymph nodes
Protocol: as §2, with “Cells growing in a log phase are collected,” for “Milky white and thick ascites is extracted from the H22 tumor-bearing mice,”, “concentration of the cell suspension” for “concentration”, “to” for “to be”, “the” for “0.05 mL of”, “suspension” for “suspension (about 1.5×10^6 cells)”, “nude mouse at the inoculation volume of 0.05 mL (about 1.5×10^6 cells)” for “Kunming mouse,”

[9] = system: TPC-1 metastatic lymph nodes; assay: Lymph node metastasis inhibition experiment; assay type: in vivo, nude mouse; details: popliteal lymph nodes
Protocol: as §2, with “Cells growing in a log phase are collected,” for “Milky white and thick ascites is extracted from the H22 tumor-bearing mice,”, “concentration of the cell suspension” for “concentration”, “to” for “to be”, “the” for “0.05 mL of”, “suspension” for “suspension (about 1.5×10^6 cells)”, “nude mouse at the inoculation volume of 0.05 mL (about 1.5×10^6 cells)” for “Kunming mouse,”

[10] = system: SKOV3 metastatic lymph nodes; assay: Lymph node metastasis inhibition experiment; assay type: in vivo, nude mouse; details: popliteal lymph nodes
Protocol: as §2, with “Cells growing in a log phase are collected,” for “Milky white and thick ascites is extracted from the H22 tumor-bearing mice,”, “concentration of the cell suspension” for “concentration”, “to” for “to be”, “the” for “0.05 mL of”, “suspension” for “suspension (about 1.5×10^6 cells)”, “nude mouse at the inoculation volume of 0.05 mL (about 1.5×10^6 cells)” for “Kunming mouse,”

[11] = system: Hela metastatic lymph nodes; assay: Lymph node metastasis inhibition experiment; assay type: in vivo, nude mouse; details: popliteal lymph nodes
Protocol: as §2, with “Cells growing in a log phase are collected,” for “Milky white and thick ascites is extracted from the H22 tumor-bearing mice,”, “concentration of the cell suspension” for “concentration”, “to” for “to be”, “the” for “0.05 mL of”, “suspension” for “suspension (about 1.5×10^6 cells)”, “nude mouse at the inoculation volume of 0.05 mL (about 1.5×10^6 cells)” for “Kunming mouse,”

[12] = system: MDA-MB-231 metastatic lymph nodes; assay: Lymph node metastasis inhibition experiment; assay type: in vivo, nude mouse; details: popliteal lymph nodes
Protocol: as §2, with “Cells growing in a log phase are collected,” for “Milky white and thick ascites is extracted from the H22 tumor-bearing mice,”, “concentration of the cell suspension” for “concentration”, “to” for “to be”, “the” for “0.05 mL of”, “suspension” for “suspension (about 1.5×10^6 cells)”, “nude mouse at the inoculation volume of 0.05 mL (about 1.5×10^6 cells)” for “Kunming mouse,”

[13] = system: SGC-7901 metastatic lymph nodes; assay: Lymph node metastasis inhibition experiment; assay type: in vivo, nude mouse; details: popliteal lymph nodes
Protocol: as §2, with “Cells growing in a log phase are collected,” for “Milky white and thick ascites is extracted from the H22 tumor-bearing mice,”, “concentration of the cell suspension” for “concentration”, “to” for “to be”, “the” for “0.05 mL of”, “suspension” for “suspension (about 1.5×10^6 cells)”, “nude mouse at the inoculation volume of 0.05 mL (about 1.5×10^6 cells)” for “Kunming mouse,”

[14] = system: SMMC-7721 metastatic lymph nodes; assay: Lymph node metastasis inhibition experiment; assay type: in vivo, nude mouse; details: popliteal lymph nodes
Protocol: as §2, with “Cells growing in a log phase are collected,” for “Milky white and thick ascites is extracted from the H22 tumor-bearing mice,”, “concentration of the cell suspension” for “concentration”, “to” for “to be”, “the” for “0.05 mL of”, “suspension” for “suspension (about 1.5×10^6 cells)”, “nude mouse at the inoculation volume of 0.05 mL (about 1.5×10^6 cells)” for “Kunming mouse,”

[15] = system: HCT116 metastatic lymph nodes; assay: Lymph node metastasis inhibition experiment; assay type: in vivo, nude mouse; details: popliteal lymph nodes
Protocol: as §2, with “Cells growing in a log phase are collected,” for “Milky white and thick ascites is extracted from the H22 tumor-bearing mice,”, “concentration of the cell suspension” for “concentration”, “to” for “to be”, “the” for “0.05 mL of”, “suspension” for “suspension (about 1.5×10^6 cells)”, “nude mouse at the inoculation volume of 0.05 mL (about 1.5×10^6 cells)” for “Kunming mouse,”

[16] = iron preparation alone 0.43 μg/mL
[17] = iron preparation alone 1.71 μg/mL
[18] = iron preparation alone 6.83 μg/mL
[19] = iron preparation alone 13.65 μg/mL

ammonium ferric citrate
Cell Survival Rate [1]: 100%
Cell Survival Rate [2, 16]: 96.21%
Cell Survival Rate [2, 17]: 97.64%
Cell Survival Rate [2, 18]: 95.12%
Cell Survival Rate [2, 19]: 100%
Cell Survival Rate [3, 16]: 100%
Cell Survival Rate [3, 17]: 98.43%
Cell Survival Rate [3, 18]: 94.19%
Cell Survival Rate [3, 19]: 100%
Cell Survival Rate [4, 16]: 97.30%
Cell Survival Rate [4, 17]: 96.41%
Cell Survival Rate [4, 18]: 100%
Cell Survival Rate [4, 19]: 100%
Weight of Lymph Node [5]: 53.94 ± 11.58 mg
inhibition effect on the metastatic lymph nodes [6]: do not have an inhibition effect
inhibition effect on growth of 9 types of tumors [7]: do not have an inhibition effect
Weight of Lymph Node [8]: 45.67 ± 10.68 mg
Weight of Lymph Node [9]: 41.97 ± 20.12 mg
Weight of Lymph Node [10]: 32.98 ± 6.42 mg
Weight of Lymph Node [11]: 30.94 ± 10.68 mg
Weight of Lymph Node [12]: 46.97 ± 10.36 mg
Weight of Lymph Node [13]: 43.69 ± 8.97 mg
Weight of Lymph Node [14]: 56.98 ± 17.59 mg
Weight of Lymph Node [15]: 49.57 ± 20.67 mg
